Tests used:
isolated aorta of rat = assay: Relaxing effect on isolated rat aorta rings pre-contracted with phenylephrine; format: cell-based; details: rat aorta with endothelium previously treated with phenylephrine; cumulative concentrations 1 to 1000 nM; FIG. 2
Description: Experiments used male Wistar rats weighing between 300-350 g. The animals were maintained in an environment with humidity (60-80%) and controlled temperature (22±2° C.), with light-dark cycles of 12 hours and free access to water and rations. Before experiments, the animals were acclimatized in the laboratory for a minimum period of 1 hour. Each animal was used only one time in each test.
The animals were sacrificed by deepening anesthesia with ketamine and xylazine hydrochloride, followed by exsanguination made by section of the carotid artery. After opening of the thoracic cavity, the aorta was carefully removed and transferred to a Petri dish containing Krebs-Henseleit solution, with the following composition (mM): NaCI-118; KCl 4.7; CaCl2 2.5; MgSO4 1.2; KH2PO4 0.9; NaHCO3 25; glucose 11. Afterwards, adipose and adjacent connective tissues were carefully removed. […]
After a period of equilibrium of 60 minutes, the preparations were treated with phenylephrine (0.3-1 μM), and after stabilization of the tonic contraction of the preparation, the integrity of the vascular endothelium was evaluated by the capacity of acetylcholine (ACh, 1 μM) to induce relaxation in the preparations. […]

[1] = tested on: spontaneous erections in male rats; assay: Test of sexual behavior in rats (spontaneous erections) after oral administration; format: in vivo, rat; details: 10 mg/kg oral, observed for 1 hour in presence of females, significantly increased compared to vehicle, average±SEM, FIG. 3
Description: The utilized protocol was adapted from literature articles (Hosseinzadeh et al., 2008; Rizzo et al., 2008). Two days before execution of experiments, couples of males and females were isolated in plastic boxes. In this period, males were housed for 1 hour per day in reinforced metal cages, rectangular with dimensions of 40×23×33 cm. On the day of the test, the male rats were treated with 10 mg/kg (oral) of compound BL-122 or only with vehicle (saline containing 10% of DMSO). Immediately afterwards, animals were placed in observation cages. The rats that received treatment by oral route were fasted for 4 hours before the test. One and a half (1.5) hours after the oral treatment, the females were placed with the respective males in the cages.

[2] = tested on: isolated cavernous body of rabbit; assay: Relaxing effect on isolated cavernous body of rabbit pre-contracted with phenylephrine; format: cell-based; details: cumulative concentrations 1 to 1000 nM
Description: Experiments used male rabbits weighing between 3.5 and 4.0 Kg. The animals were anesthetized with sodium pentobarbital (40 mg/kg, i.p), and the abdominal cavity opened for the withdrawal of the penis from the animals. The tissues were placed in a Petri dish containing Krebs-Henseleit solution pH 7.4 (NaCl 118 mM; KCl 4.8 mM; CaCl2 2.5 mM; MgSO4 1.2 mM; KH2PO4 0.9 mM; NaHCO3 25 mM; glucose 11 mM) warmed to 37° C., and cartilage and adherent tissue were carefully removed. In general 3 segments containing approximately 2 cm of length of cavernous body were obtained from each animal. The preparations were mounted on glass reservoirs containing 5 ml of Krebs solution containing indomethacin (5.6 μM) at 37° C., continuously aerated with a mixture of 95% of O2 and 5% of CO2.
The preparations were submitted to a period of equilibrium of at least 90 minutes, under tension of 2 g, during which the bath solution was renewed each 15 minutes. Changes of isometric tension were registered using a TRI-201 force transducer (Letica Scientific Instruments, Spain) connected a polygraph.
After the period of stabilization, the preparations were treated with single concentrations of […] of phenylephrine. […]
The relaxation responses caused by the compounds were calculated in relation to the contractile response of phenylephrine, which is considered as 100% of contraction. […]

In the case of CN1CC(=O)N[C@H](Cc2c(C(=O)c3ccc4c(c3)OCO4)[nH]c3ccccc23)C1=O [Compound BL-122, (R)-3-((2-(benzo[d][1,3]dioxol-5-carbonyl)-1H-indol-3-yl)methyl)-1-methylpiperazine-2,5-dione], the “relaxation of rat aorta preparations” value (isolated aorta of rat) is reported as “promoted relaxation”, the spontaneous erections [1] is reported as “about 6.4±2.0” and the EC50 ([2]; Oryctolagus cuniculus, cavernous body of rabbit previously contracted with phenylephrine, value with interval in brackets) is reported as 15.9 nM. The “maximum relaxation (efficacy)” value ([2]; cavernous body of rabbit previously contracted with phenylephrine (contraction = 100%), average±SEM) was 63.1±7.8%.

From patent US8268831B2, “Compounds derived from 2-(3-methylenedioxy)-benzoyl indol” (Biolab Sanus Farmaceutica Ltda., priority 2008, dated 2012)
